ChEMBL document CHEMBL1143892, “Oligo(tyrosine sulfate)s as heparin pentasaccharide mimic: evaluation by surface noncovalent affinity mass spectrometry” (2008)
Non-standard residues stand in square brackets, D forms with d. Residues, ends and D or L forms follow the SMILES beside them. *: point of attachment. X1 = O=C([C@H](Cc1ccc(OS(=O)(=O)O)cc1)NS(=O)(=O)O)*; sY = N[C@@H](Cc1ccc(OS(=O)(=O)O)cc1)C(=O)O

Assays:
Type in all cases: functional
Plasma [1] = assay: Anticoagulant activity in human plasma assessed as activated partial thromboplastin time at 0.1 mg/ml after 15 mins
Plasma [2] = assay: Anticoagulant activity in human plasma assessed as activated partial thromboplastin time at 0.3 mg/ml after 15 mins
Plasma [3] = assay: Anticoagulant activity in human plasma assessed as activated partial thromboplastin time at 0.03 mg/ml after 15 mins
Plasma [4] = assay: Anticoagulant activity in human plasma assessed as activated partial thromboplastin time at 0.01 mg/ml after 15 mins
Plasma [5] = assay: Anticoagulant activity in human plasma assessed as activated partial thromboplastin time at 1 mg/ml after 15 mins

Row | Compound | APTT (Plasma [1]) | APTT (Plasma [2]) | APTT (Plasma [3]) | APTT (Plasma [4]) | APTT (Plasma [5])
1 | N[C@@H](Cc1ccc(OS(=O)(=O)[O-])cc1)C(=O)N[C@@H](Cc1ccc(OS(=O)(=O)[O-])cc1)C(=O)N[C@@H](Cc1ccc(OS(=O)(=O)[O-])cc1)C(=O)N[C@@H](Cc1ccc(OS(=O)(=O)[O-])cc1)C(=O)N[C@@H](Cc1ccc(OS(=O)(=O)[O-])cc1)C(=O)N[C@@H](Cc1ccc(OS(=O)(=O)[O-])cc1)C(=O)N[C@@H](Cc1ccc(OS(=O)(=O)[O-])cc1)C(=O)O.[Na+].[Na+].[Na+].[Na+].[Na+].[Na+].[Na+] (H-[sY][sY][sY][sY][sY][sY][sY]-OH) | 31 s | 32.4 s | 30.5 s | 30.4 s | 40.6 s
2 | O=C(O)[C@H](Cc1ccc(OS(=O)(=O)[O-])cc1)NC(=O)[C@H](Cc1ccc(OS(=O)(=O)[O-])cc1)NC(=O)[C@H](Cc1ccc(OS(=O)(=O)[O-])cc1)NC(=O)[C@H](Cc1ccc(OS(=O)(=O)[O-])cc1)NC(=O)[C@H](Cc1ccc(OS(=O)(=O)[O-])cc1)NC(=O)[C@H](Cc1ccc(OS(=O)(=O)[O-])cc1)NC(=O)[C@H](Cc1ccc(OS(=O)(=O)[O-])cc1)NC(=O)[C@H](Cc1ccc(OS(=O)(=O)[O-])cc1)NC(=O)[C@H](Cc1ccc(OS(=O)(=O)[O-])cc1)NS(=O)(=O)[O-].[Na+].[Na+].[Na+].[Na+].[Na+].[Na+].[Na+].[Na+].[Na+].[Na+] (X1-[sY][sY][sY][sY][sY][sY][sY][sY]-OH) | 36.5 s | 45.7 s | 33.1 s | 31.9 s | 95.8 s
3 | N[C@@H](Cc1ccc(OS(=O)(=O)[O-])cc1)C(=O)N[C@@H](Cc1ccc(OS(=O)(=O)[O-])cc1)C(=O)N[C@@H](Cc1ccc(OS(=O)(=O)[O-])cc1)C(=O)N[C@@H](Cc1ccc(OS(=O)(=O)[O-])cc1)C(=O)N[C@@H](Cc1ccc(OS(=O)(=O)[O-])cc1)C(=O)N[C@@H](Cc1ccc(OS(=O)(=O)[O-])cc1)C(=O)N[C@@H](Cc1ccc(OS(=O)(=O)[O-])cc1)C(=O)N[C@@H](Cc1ccc(OS(=O)(=O)[O-])cc1)C(=O)N[C@@H](Cc1ccc(OS(=O)(=O)[O-])cc1)C(=O)N[C@@H](Cc1ccc(OS(=O)(=O)[O-])cc1)C(=O)O.[Na+].[Na+].[Na+].[Na+].[Na+].[Na+].[Na+].[Na+].[Na+].[Na+] (H-[sY][sY][sY][sY][sY][sY][sY][sY][sY][sY]-OH) | 41 s | 90.5 s | 32.1 s | 30.6 s | 153.7 s
4 | O=C(O)[C@H](Cc1ccc(OS(=O)(=O)[O-])cc1)NC(=O)[C@H](Cc1ccc(OS(=O)(=O)[O-])cc1)NC(=O)[C@H](Cc1ccc(OS(=O)(=O)[O-])cc1)NC(=O)[C@H](Cc1ccc(OS(=O)(=O)[O-])cc1)NC(=O)[C@H](Cc1ccc(OS(=O)(=O)[O-])cc1)NC(=O)[C@H](Cc1ccc(OS(=O)(=O)[O-])cc1)NS(=O)(=O)[O-].[Na+].[Na+].[Na+].[Na+].[Na+].[Na+].[Na+] (X1-[sY][sY][sY][sY][sY]-OH) | 32.3 s | 35.7 s | 31.2 s | 30.8 s | 64.8 s
5 | O=C([O-])[C@H](Cc1ccc(OS(=O)(=O)[O-])cc1)NC(=O)[C@H](Cc1ccc(OS(=O)(=O)[O-])cc1)NC(=O)[C@H](Cc1ccc(OS(=O)(=O)[O-])cc1)NC(=O)[C@H](Cc1ccc(OS(=O)(=O)[O-])cc1)NC(=O)[C@H](Cc1ccc(OS(=O)(=O)[O-])cc1)NC(=O)[C@H](Cc1ccc(OS(=O)(=O)[O-])cc1)NC(=O)[C@H](Cc1ccc(OS(=O)(=O)[O-])cc1)NC(=O)[C@H](Cc1ccc(OS(=O)(=O)[O-])cc1)NC(=O)[C@H](Cc1ccc(OS(=O)(=O)[O-])cc1)NC(=O)[C@H](Cc1ccc(OS(=O)(=O)[O-])cc1)NC(=O)[C@H](Cc1ccc(OS(=O)(=O)[O-])cc1)NC(=O)[C@H](Cc1ccc(OS(=O)(=O)[O-])cc1)NS(=O)(=O)[O-].[Na+].[Na+].[Na+].[Na+].[Na+].[Na+].[Na+].[Na+].[Na+].[Na+].[Na+].[Na+].[Na+].[Na+] (X1-[sY][sY][sY][sY][sY][sY][sY][sY][sY][sY][sY]-OH) | 50.3 s | 75.7 s | 37.6 s | 32 s | 172.1 s
